For 21 compounds, DSF and IC50 results are on record in patent US20260265244A1, “HETEROCYCLIC COMPOUNDS AS STING ANTAGONISTS” (Boehringer Ingelheim International GmbH, priority 2022, published 2026).

Assay [1] addresses T1, cGAMP binding domain of wild-type (GRR) human STING, residues 155-341 (Homo sapiens, UniProt Q86WV6, H232R).
T1 construct: His-TEV-hSTING (WT); TEV protease cleavage site (N); made in house; host or cells: E. coli BL21 DE3
Briefly: Increase of stability of STING protein against thermal denaturation, Differential Scanning Fluorimetry (DSF). The gist of the method: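 3 µM His-tagged protein with 100 uM compound, 5×SYPRO Orange, 2% DMSO in 20 mM Tris, 150 mM NaCl, pH7.5; 15–95 °C ramp in 0.5 °C steps (15 s/cycle). Tm from Boltzmann fit of the dye melt curve, duplicates averaged, repeated if SD>1.5 °C; ΔTm = Tm with compound minus Tm of protein alone.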

Assay [2] addresses T2, human STING WT (R232) (Homo sapiens, UniProt Q86WV6, H232R).
T2 construct: purchased Cisbio 64BDSTGPEG
Briefly: Human STING HTRF binding assay (competitive, Cisbio 64BDSTGPEG). The gist of the method: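 Competitive HTRF: 6His-tagged human STING WT R232 binding domain (residues 138-379) with anti-6His Cryptate antibody and d2-labeled STING ligand, 180 min at room temperature, 1% DMSO, 8 concentrations from 10 μM or 1 μM top in ~1:5 steps. HTRF ratios were calibrated to a cGAMP standard curve and IC50 obtained by 4-parameter logistic fit.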

T2 sequence (Q86WV6 138-379 H232R): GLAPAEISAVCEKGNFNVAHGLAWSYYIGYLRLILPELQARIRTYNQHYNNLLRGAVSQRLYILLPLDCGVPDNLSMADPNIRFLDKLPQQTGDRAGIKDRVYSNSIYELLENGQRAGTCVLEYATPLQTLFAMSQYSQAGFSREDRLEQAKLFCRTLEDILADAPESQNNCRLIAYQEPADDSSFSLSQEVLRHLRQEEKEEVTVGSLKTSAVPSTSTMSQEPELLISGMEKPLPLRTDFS
T1 sequence (Q86WV6 with tags, fused parts or gaps H232R): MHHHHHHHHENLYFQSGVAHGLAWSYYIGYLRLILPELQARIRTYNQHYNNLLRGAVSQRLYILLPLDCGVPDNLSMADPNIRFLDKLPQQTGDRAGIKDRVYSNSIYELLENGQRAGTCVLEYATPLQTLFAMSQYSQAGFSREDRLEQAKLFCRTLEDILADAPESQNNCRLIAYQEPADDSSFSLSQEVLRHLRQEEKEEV

As to `Cc1nc2nn(CCO)cc2cc1-n1nc(-c2cccc3nn(C[C@H](O)c4ccccc4)cc23)c(C(C)C)c1C` [Example 37, (1R)-2-(4-{1-[2-(2-hydroxyethyl)-6-methyl-2H-pyrazolo[3,4-b]pyridin-5-yl]-5-methyl-4-(propan-2-yl)-1H-pyrazol-3-yl}-2H-indazol-2-yl)-1-phenylethan-1-ol], the DSF in assay [1] worked out at 27 K. In assay [2], this compound had an IC50 of 0.0055 µM.

Take `Cc1nc2nn(C)cc2cc1-n1nc(-c2cccc3nn(C[C@H](OCCO)c4ccccc4)cc23)c(C(C)C)c1C` [Example 8, 2-[(1R)-2-[4-(1-{2,6-dimethyl-2H-pyrazolo[3,4-b]pyridin-5-yl}-5-methyl-4-(propan-2-yl)-1H-pyrazol-3-yl)-2H-indazol-2-yl]-1-phenylethoxy]ethan-1-ol]: in assay [1], the DSF amounted to 24 K. In assay [2], this compound displayed an IC50 of 0.0146 µM.

On to `Cc1nc2nn(CCCCN3CCN(C)CC3)cc2cc1-n1nc(-c2cccc3nn(C[C@H](O)c4ccccc4)cc23)c(C(C)C)c1C` [Example 45, (1R)-2-[4-(5-methyl-1-{6-methyl-2-[4-(4-methylpiperazin-1-yl)butyl]-2H-pyrazolo[3,4-b]pyridin-5-yl}-4-(propan-2-yl)-1H-pyrazol-3-yl)-2H-indazol-2-yl]-1-phenylethan-1-ol], for which the DSF in assay [1] was 27 K. In assay [2], this compound came in with a concentration for half-maximal inhibition (IC50) of 0.0181 µM.

For the compound `Cn1cc2cc(-c3nc(-c4cccc5nn(C[C@H](O)c6ccc(OCCC(C)(C)O)cc6)cc45)c(C4CC4)n3C)c(C3CC3)nc2n1` [Example 41, 4-{4-[(1R)-2-[4-(5-cyclopropyl-2-{6-cyclopropyl-2-methyl-2H-pyrazolo[3,4-b]pyridin-5-yl}-1-methyl-1H-imidazol-4-yl)-2H-indazol-2-yl]-1-hydroxyethyl]phenoxy}-2-methylbutan-2-ol], the DSF in assay [1] amounted to 30 K. In addition, the 50% inhibitory concentration (IC50) in assay [2] stood at 0.0064 µM.

Take `Cc1nc2nn(C)cc2cc1-n1nc(-c2cccc3nn(CCc4ccc(OCCN(C)C)cc4)cc23)c(C(C)C)c1C` [Example 65, [2-(4-{2-[4-(1-{2,6-dimethyl-2H-pyrazolo[3,4-b]pyridin-5-yl}-5-methyl-4-(propan-2-yl)-1H-pyrazol-3-yl)-2H-indazol-2-yl]ethyl}phenoxy)ethyl]dimethylamine]: in assay [1], the DSF is given as 26 K. The half-maximal inhibitory concentration (IC50) in assay [2] turned out to be 0.0169 µM.

`Cc1nc2nn(CC(F)F)cc2cc1-n1nc(-c2cccc3nn(C[C@H](O)c4ccccc4)cc23)c(C(C)C)c1C` [Example 103, (1R)-2-(4-{1-[2-(2,2-difluoroethyl)-6-methyl-2H-pyrazolo[3,4-b]pyridin-5-yl]-5-methyl-4-(propan-2-yl)-1H-pyrazol-3-yl}-2H-indazol-2-yl)-1-phenylethan-1-ol] yielded a DSF in assay [1] of 29 K. The compound also had an IC50 in assay [2] of 0.0093 µM.

In assay [1], `Cc1c(C2CC2)c(-c2c(F)ccc3nn(C[C@H](O)c4ccccc4)cc23)nn1-c1cc2cn(C)nc2nc1C1CC1` [Example 35, (1R)-2-[4-(4-cyclopropyl-1-{6-cyclopropyl-2-methyl-2H-pyrazolo[3,4-b]pyridin-5-yl}-5-methyl-1H-pyrazol-3-yl)-5-fluoro-2H-indazol-2-yl]-1-phenylethan-1-ol] returned a DSF of 29 K. For the same compound, the IC50 in assay [2] came to 0.0193 µM.

Compound `Cc1nc2nn(C(C)C)cc2cc1-n1nc(-c2cccc3nn(C[C@H](O)c4ccccc4)cc23)c(C(C)C)c1C` [Example 18, (1R)-2-(4-{5-methyl-1-[6-methyl-2-(propan-2-yl)-2H-pyrazolo[3,4-b]pyridin-5-yl]-4-(propan-2-yl)-1H-pyrazol-3-yl}-2H-indazol-2-yl)-1-phenylethan-1-ol] registered a DSF in assay [1] of 28 K. In addition, the IC50 in assay [2] amounted to 0.0146 µM.

Consider `CNC(=O)CO[C@@H](Cn1cc2c(-c3nn(-c4cc5cn(C)nc5nc4C)c(C)c3C(C)C)cccc2n1)c1ccccc1` [Example 36, 2-[(1R)-2-[4-(1-{2,6-dimethyl-2H-pyrazolo[3,4-b]pyridin-5-yl)-5-methyl-4-(propan-2-yl)-1H-pyrazol-3-yl)-2H-indazol-2-yl]-1-phenylethoxy]-N-methylacetamide], for which the DSF in assay [1] came out at 24 K. Further, the IC50 in assay [2] came to 0.0146 µM.

In turn, `Cc1c(C(C)C)c(-c2cccc3nn(C[C@H](O)c4ccccc4)cc23)nn1-c1cc2cn(C)nc2nc1C1CCCN1` (stereo partly drawn) [Example 111, (1R)-2-(4-{5-Methyl-1-[2-methyl-6-(pyrrolidin-2-yl)-2H-pyrazolo[3,4-b]pyridin-5-yl]-4-(propan-2-yl)-1H-pyrazol-3-yl}-2H-indazol-2-yl)-1-phenylethan-1-ol] gave a DSF in assay [1] of 24 K. In addition, in assay [2], the half-maximal inhibitory concentration (IC50) was 0.0252 µM.

Turning to `CO[C@@H](Cn1cc2c(-c3nn(-c4cc5cn(C)nc5nc4C)c(C)c3C(C)C)cccc2n1)c1ccccc1` [Example 52, 4-(1-{2,6-dimethyl-2H-pyrazolo[3,4-b]pyridin-5-yl}-5-methyl-4-(propan-2-yl)-1H-pyrazol-3-yl)-2-[(2R)-2-methoxy-2-phenylethyl]-2H-indazole], in assay [1], the DSF was 25 K. The same compound had a half-maximal inhibitory concentration (IC50) in assay [2] of 0.0199 µM.

Turning to `Cc1c(C(C)C)c(-c2cccc3nn(C[C@H](O)c4ccccc4)cc23)nn1-c1cc2cn(C)nc2nc1CN1CCOCC1` [Example 26, (1R)-2-[4-(5-methyl-1-{2-methyl-6-[(morpholin-4-yl)methyl]-2H-pyrazolo[3,4-b]pyridin-5-yl}-4-(propan-2-yl)-1H-pyrazol-3-yl)-2H-indazol-2-yl]-1-phenylethan-1-ol], the DSF in assay [1] is recorded as 26 K. In assay [2], the IC50 turned out to be 0.0428 µM.

In assay [1], `CC(C)c1nc2nn(C)cc2cc1-c1nc(-c2cccc3nn(CS(=O)(=O)c4ccccc4)cc23)c(C2CC2)n1C` [Example 96, 2-[(Benzenesulfonyl)methyl]-4-{5-cyclopropyl-1-methyl-2-[2-methyl-6-(propan-2-yl)-2H-pyrazolo[3,4-b]pyridin-5-yl]-1H-imidazol-4-yl}-2H-indazole] had a DSF of 29 K. Besides, the IC50 in assay [2] came out at 0.034 µM.

In assay [1], `COC(C)c1nc2nn(C)cc2cc1-n1nc(-c2cccc3nn(C[C@H](O)c4ccccc4)cc23)c(C(C)C)c1C` (stereo partly drawn) [Example 58, (1R)-2-(4-{1-[6-(1-methoxyethyl)-2-methyl-2H-pyrazolo[3,4-b]pyridin-5-yl]-5-methyl-4-(propan-2-yl)-1H-pyrazol-3-yl}-2H-indazol-2-yl)-1-phenylethan-1-ol] registered a DSF of 28 K. Moreover, in assay [2], the IC50 stood at 0.0158 µM.

Compound `Cc1nc2nn(CCCN3CCN(C)CC3)cc2cc1-n1nc(-c2cccc3nn(C[C@H](O)c4ccccc4)cc23)c(C(C)C)c1C` [Example 7, (1R)-2-[4-(5-methyl-1-{6-methyl-2-[3-(4-methylpiperazin-1-yl)propyl]-2H-pyrazolo[3,4-b]pyridin-5-yl}-4-(propan-2-yl)-1H-pyrazol-3-yl)-2H-indazol-2-yl]-1-phenylethan-1-ol] gave a DSF in assay [1] of 25 K. The half-maximal inhibitory concentration (IC50) in assay [2] was found to be 0.0246 µM.

Turning to `CCc1nc2nn(C)cc2cc1-c1nc(-c2cccc3nn(C[C@H](F)c4ccccc4)cc23)c(C2CC2)n1C` [Example 107, 4-(5-cyclopropyl-2-{6-ethyl-2-methyl-2H-pyrazolo[3,4-b]pyridin-5-yl}-1-methyl-1H-imidazol-4-yl)-2-[(2R)-2-fluoro-2-phenylethyl]-2H-indazole], the DSF in assay [1] came to 31 K. The compound also registered an IC50 in assay [2] of 0.0038 µM.

With `Cc1nc2nn(CC(O)CN3CCN(C)CC3)cc2cc1-n1nc(-c2cccc3nn(C[C@H](O)c4ccccc4)cc23)c(C(C)C)c1C` (stereo partly drawn) [Example 70, 1-[5-(3-{2-[(2R)-2-hydroxy-2-phenylethyl]-2H-indazol-4-yl}-5-methyl-4-(propan-2-yl)-1H-pyrazol-1-yl)-6-methyl-2H-pyrazolo[3,4-b]pyridin-2-yl]-3-(4-methylpiperazin-1-yl)propan-2-ol], the DSF in assay [1] is on record as 24 K. The IC50 in assay [2] is 0.0377 µM.

For `CC(C)c1c(-c2cccc3nn(C[C@H](O)c4ccccc4)cc23)nc(-c2cc3cn(C)nc3cc2OC(F)(F)F)n1C` [Example 109, (1R)-2-(4-{1-methyl-2-[2-methyl-6-(trifluoromethoxy)-2H-indazol-5-yl]-5-(propan-2-yl)-1H-imidazol-4-yl}-2H-indazol-2-yl)-1-phenylethan-1-ol], the DSF in assay [1] was 27 K. Also, the 50% inhibitory concentration (IC50) in assay [2] was 0.0188 µM.

Regarding `Cc1nc2nn(Cc3cnn(C)c3)cc2cc1-n1nc(-c2cccc3nn(C[C@H](O)c4ccccc4)cc23)c(C(C)C)c1C` [Example 24, (1R)-2-[4-(5-methyl-1-{6-methyl-2-[(1-methyl-1H-pyrazol-4-yl)methyl]-2H-pyrazolo[3,4-b]pyridin-5-yl}-4-(propan-2-yl)-1H-pyrazol-3-yl)-2H-indazol-2-yl]-1-phenylethan-1-ol], the DSF in assay [1] is recorded as 30 K. This compound gave an IC50 in assay [2] of 0.0049 µM.

In the case of `Cc1nc2nn(CC3CC3)cc2cc1-n1nc(-c2cccc3nn(C[C@H](O)c4ccccc4)cc23)c(C(C)C)c1C` [Example 56, (1R)-2-(4-{1-[2-(cyclopropylmethyl)-6-methyl-2H-pyrazolo[3,4-b]pyridin-5-yl]-5-methyl-4-(propan-2-yl)-1H-pyrazol-3-yl}-2H-indazol-2-yl)-1-phenylethan-1-ol], in assay [1], the DSF came out at 25 K. In assay [2], the 50% inhibitory concentration (IC50) came to 0.0181 µM.

With `Cc1nc2nn(C)cc2cc1-n1nc(-c2cccc3nn(C[C@H](OCF)c4ccccc4)cc23)c(C(C)C)c1C` [Example 27, 4-(1-{2,6-dimethyl-2H-pyrazolo[3,4-b]pyridin-5-yl}-5-methyl-4-(propan-2-yl)-1H-pyrazol-3-yl)-2-[(2R)-2-(fluoromethoxy)-2-phenylethyl]-2H-indazole], in assay [1], the DSF was determined as 25 K. Further, the half-inhibitory concentration (IC50) in assay [2] is 0.0145 µM.
